We go through 36 molecules from ChEMBL document CHEMBL1155953, “Synthesis and biological evaluation of C-12' substituted vinflunine derivatives” (Bioorg Med Chem Lett, 2008).

The test system of the assay is A549. Nature of the assay: Cytotoxicity against human A549 cells by SRB assay. The class given is functional, cell-based. On the technique in general: The SRB assay estimates cell density from bound dye.
Usually IC50 stands for the concentration that gives 50% inhibition. Low readings indicate inhibition by little substance, high ones a need for much substance. Turning to `CC[C@]12C=CCN3CC[C@@]4(c5cc([C@@]6(C(=O)OC)C[C@H]7C[C@@H](C(C)(F)F)CN(Cc8c6[nH]c6ccc(NC(=O)N(C)C)cc86)C7)c(OC)cc5N(C)[C@H]4[C@@](O)(C(=O)OC)[C@@H]1OC(C)=O)[C@@H]32`, the IC50 is more than 100000 nM.

Take `CC[C@]12C=CCN3CC[C@@]4(c5cc([C@@]6(C(=O)OC)C[C@H]7C[C@@H](C(C)(F)F)CN(Cc8c6[nH]c6ccc(-c9ccsc9)cc86)C7)c(OC)cc5N(C)[C@H]4[C@@](O)(C(=O)OC)[C@@H]1OC(C)=O)[C@@H]32`: it took 3000 nM to reach half-maximal inhibition (IC50).

Molecule `CC[C@]12C=CCN3CC[C@@]4(c5cc([C@@]6(C(=O)OC)C[C@H]7C[C@@H](C(C)(F)F)CN(Cc8c6[nH]c6ccc(NC(=O)N9CCOCC9)cc86)C7)c(OC)cc5N(C)[C@H]4[C@@](O)(C(=O)OC)[C@@H]1OC(C)=O)[C@@H]32` yielded an IC50 of more than 100000 nM.

`CC[C@]12C=CCN3CC[C@@]4(c5cc([C@@]6(C(=O)OC)C[C@H]7C[C@@H](C(C)(F)F)CN(Cc8c6[nH]c6ccc(-c9ccccc9Cl)cc86)C7)c(OC)cc5N(C)[C@H]4[C@@](O)(C(=O)OC)[C@@H]1OC(C)=O)[C@@H]32` came in with an IC50 of 1010 nM.

Take `CC[C@]12C=CCN3CC[C@@]4(c5cc([C@@]6(C(=O)OC)C[C@H]7C[C@@H](C(C)(F)F)CN(Cc8c6[nH]c6ccc(-c9ccoc9)cc86)C7)c(OC)cc5N(C)[C@H]4[C@@](O)(C(=O)OC)[C@@H]1OC(C)=O)[C@@H]32`: inhibition was half-maximal at 2280 nM (IC50).

Molecule `CC[C@]12C=CCN3CC[C@@]4(c5cc([C@@]6(C(=O)OC)C[C@H]7C[C@@H](C(C)(F)F)CN(CCc8c6[nH]c6ccc(C(=O)OC)cc86)C7)c(OC)cc5N(C)[C@H]4[C@@](O)(C(=O)OC)[C@@H]1OC(C)=O)[C@@H]32` had an IC50 of 8730 nM.

Molecule `CC[C@]12C=CCN3CC[C@@]4(c5cc([C@@]6(C(=O)OC)C[C@H]7C[C@@H](C(C)(F)F)CN(Cc8c6[nH]c6ccc(-c9ccccc9C(F)(F)F)cc86)C7)c(OC)cc5N(C)[C@H]4[C@@](O)(C(=O)OC)[C@@H]1OC(C)=O)[C@@H]32` yielded an IC50 of 290 nM.

On to `CC[C@]12C=CCN3CC[C@@]4(c5cc([C@@]6(C(=O)OC)C[C@H]7C[C@@H](C(C)(F)F)CN(Cc8c6[nH]c6ccc(-c9ccc(F)cc9F)cc86)C7)c(OC)cc5N(C)[C@H]4[C@@](O)(C(=O)OC)[C@@H]1OC(C)=O)[C@@H]32`, for which the IC50 stood at 1020 nM.

In turn, `CCC(=O)c1ccc2[nH]c3c(c2c1)CN1C[C@H](C[C@@H](C(C)(F)F)C1)C[C@]3(C(=O)OC)c1cc2c(cc1OC)N(C)[C@H]1[C@@](O)(C(=O)OC)[C@H](OC(C)=O)[C@]3(CC)C=CCN4CC[C@]21[C@@H]43` returned an IC50 of 17400 nM.

`CCNC(=S)Nc1ccc2[nH]c3c(c2c1)CN1C[C@H](C[C@@H](C(C)(F)F)C1)C[C@]3(C(=O)OC)c1cc2c(cc1OC)N(C)[C@H]1[C@@](O)(C(=O)OC)[C@H](OC(C)=O)[C@]3(CC)C=CCN4CC[C@]21[C@@H]43`: the IC50 stood at 5680 nM.

Consider `CC[C@]12C=CCN3CC[C@@]4(c5cc([C@@]6(C(=O)OC)C[C@H]7C[C@@H](C(C)(F)F)CN(CCc8c6[nH]c6ccc(N9CCCC9)cc86)C7)c(OC)cc5N(C)[C@H]4[C@@](O)(C(=O)OC)[C@@H]1OC(C)=O)[C@@H]32`, for which half-maximal inhibition (IC50) required 640 nM.

In turn, `CC[C@]12C=CCN3CC[C@@]4(c5cc([C@@]6(C(=O)OC)C[C@H]7C[C@@H](C(C)(F)F)CN(Cc8c6[nH]c6ccc(NC(=O)C(Cl)Cl)cc86)C7)c(OC)cc5N(C)[C@H]4[C@@](O)(C(=O)OC)[C@@H]1OC(C)=O)[C@@H]32` showed a half-inhibitory concentration (IC50) of 200 nM.

As for `CC[C@]12C=CCN3CC[C@@]4(c5cc([C@@]6(C(=O)OC)C[C@H]7C[C@@H](C(C)(F)F)CN(Cc8c6[nH]c6ccc(CNCCO)cc86)C7)c(OC)cc5N(C)[C@H]4[C@@](O)(C(=O)OC)[C@@H]1OC(C)=O)[C@@H]32`, half-maximal inhibition (IC50) required 95500 nM.

Molecule `CC[C@]12C=CCN3CC[C@@]4(c5cc([C@@]6(C(=O)OC)C[C@H]7C[C@@H](C(C)(F)F)CN(CCc8c6[nH]c6ccc(C)cc86)C7)c(OC)cc5N(C)[C@H]4[C@@](O)(C(=O)OC)[C@@H]1OC(C)=O)[C@@H]32` had an IC50 of 37 nM.

In turn, `CC[C@]12C=CCN3CC[C@@]4(c5cc([C@@]6(C(=O)OC)C[C@H]7C[C@@H](C(C)(F)F)CN(Cc8c6[nH]c6ccc(-c9ccc(F)cc9)cc86)C7)c(OC)cc5N(C)[C@H]4[C@@](O)(C(=O)OC)[C@@H]1OC(C)=O)[C@@H]32` returned an IC50 of 2560 nM.

`CC[C@]12C=CCN3CC[C@@]4(c5cc([C@@]6(C(=O)OC)C[C@H]7C[C@@H](C(C)(F)F)CN(CCc8c6[nH]c6ccc(N(C)C)cc86)C7)c(OC)cc5N(C)[C@H]4[C@@](O)(C(=O)OC)[C@@H]1OC(C)=O)[C@@H]32`: half-maximal inhibition (IC50) was put at 220 nM.

The molecule `CC[C@]12C=CCN3CC[C@@]4(c5cc([C@@]6(C(=O)OC)C[C@H]7C[C@@H](C(C)(F)F)CN(Cc8c6[nH]c6ccc(NC)cc86)C7)c(OC)cc5N(C)[C@H]4[C@@](O)(C(=O)OC)[C@@H]1OC(C)=O)[C@@H]32` registered an IC50 of 6910 nM.

Molecule `CC[C@]12C=CCN3CC[C@@]4(c5cc([C@@]6(C(=O)OC)C[C@H]7C[C@@H](C(C)(F)F)CN(Cc8c6[nH]c6ccc(C(=O)OC(C)C)cc86)C7)c(OC)cc5N(C)[C@H]4[C@@](O)(C(=O)OC)[C@@H]1OC(C)=O)[C@@H]32` showed an IC50 of 3260 nM.

Molecule `CC[C@]12C=CCN3CC[C@@]4(c5cc([C@@]6(C(=O)OC)C[C@H]7C[C@@H](C(C)(F)F)CN(Cc8c6[nH]c6ccc(CNCCN9CCOCC9)cc86)C7)c(OC)cc5N(C)[C@H]4[C@@](O)(C(=O)OC)[C@@H]1OC(C)=O)[C@@H]32` displayed an IC50 of more than 100000 nM.

In turn, `CC[C@]12C=CCN3CC[C@@]4(c5cc([C@@]6(C(=O)OC)C[C@H]7C[C@@H](C(C)(F)F)CN(Cc8c6[nH]c6ccc(Nc9ccccc9)cc86)C7)c(OC)cc5N(C)[C@H]4[C@@](O)(C(=O)OC)[C@@H]1OC(C)=O)[C@@H]32` gave an IC50 of 1860 nM.

Regarding `CC[C@]12C=CCN3CC[C@@]4(c5cc([C@@]6(C(=O)OC)C[C@H]7C[C@@H](C(C)(F)F)CN(Cc8c6[nH]c6ccc(NC(=S)NC9CC9)cc86)C7)c(OC)cc5N(C)[C@H]4[C@@](O)(C(=O)OC)[C@@H]1OC(C)=O)[C@@H]32`, it took 27500 nM to reach half-maximal inhibition (IC50).

`CC[C@]12C=CCN3CC[C@@]4(c5cc([C@@]6(C(=O)OC)C[C@H]7C[C@@H](C(C)(F)F)CN(Cc8c6[nH]c6ccc(C(=O)OCc9ccccc9)cc86)C7)c(OC)cc5N(C)[C@H]4[C@@](O)(C(=O)OC)[C@@H]1OC(C)=O)[C@@H]32` returned an IC50 of 280 nM.

`CC[C@]12C=CCN3CC[C@@]4(c5cc([C@@]6(C(=O)OC)C[C@H]7C[C@@H](C(C)(F)F)CN(Cc8c6[nH]c6ccc(N=[N+]=[N-])cc86)C7)c(OC)cc5N(C)[C@H]4[C@@](O)(C(=O)OC)[C@@H]1OC(C)=O)[C@@H]32` returned an IC50 of 160 nM.

In the case of `CCCCc1ccc2[nH]c3c(c2c1)CN1C[C@H](C[C@@H](C(C)(F)F)C1)C[C@]3(C(=O)OC)c1cc2c(cc1OC)N(C)[C@H]1[C@@](O)(C(=O)OC)[C@H](OC(C)=O)[C@]3(CC)C=CCN4CC[C@]21[C@@H]43`, the IC50 worked out at 1880 nM.

`CC[C@]12C=CCN3CC[C@@]4(c5cc([C@@]6(C(=O)OC)C[C@H]7C[C@@H](C(C)(F)F)CN(Cc8c6[nH]c6ccc(CNc9ccc(OC)cc9)cc86)C7)c(OC)cc5N(C)[C@H]4[C@@](O)(C(=O)OC)[C@@H]1OC(C)=O)[C@@H]32` showed an IC50 of 3520 nM.

Molecule `CCCCNCc1ccc2[nH]c3c(c2c1)CN1C[C@H](C[C@@H](C(C)(F)F)C1)C[C@]3(C(=O)OC)c1cc2c(cc1OC)N(C)[C@H]1[C@@](O)(C(=O)OC)[C@H](OC(C)=O)[C@]3(CC)C=CCN4CC[C@]21[C@@H]43` showed an IC50 of 1740 nM.

Turning to `CCOC(=O)c1ccc2[nH]c3c(c2c1)CN1C[C@H](C[C@@H](C(C)(F)F)C1)C[C@]3(C(=O)OC)c1cc2c(cc1OC)N(C)[C@H]1[C@@](O)(C(=O)OC)[C@H](OC(C)=O)[C@]3(CC)C=CCN4CC[C@]21[C@@H]43`, the IC50 worked out at 1030 nM.

As to `CC[C@]12C=CCN3CC[C@@]4(c5cc([C@@]6(C(=O)OC)C[C@H]7C[C@@H](C(C)(F)F)CN(Cc8c6[nH]c6ccc(NC(=O)C(F)(F)F)cc86)C7)c(OC)cc5N(C)[C@H]4[C@@](O)(C(=O)OC)[C@@H]1OC(C)=O)[C@@H]32`, the IC50 was determined as 1810 nM.

In turn, `CC[C@]12C=CCN3CC[C@@]4(c5cc([C@@]6(C(=O)OC)C[C@H]7C[C@@H](C(C)(F)F)CN(CCc8c6[nH]c6ccc(-c9ccccc9)cc86)C7)c(OC)cc5N(C)[C@H]4[C@@](O)(C(=O)OC)[C@@H]1OC(C)=O)[C@@H]32` showed an IC50 of 2160 nM.

Turning to `CC[C@]12C=CCN3CC[C@@]4(c5cc([C@@]6(C(=O)OC)C[C@H]7C[C@@H](C(C)(F)F)CN(Cc8c6[nH]c6ccc(CNCCCN9CCOCC9)cc86)C7)c(OC)cc5N(C)[C@H]4[C@@](O)(C(=O)OC)[C@@H]1OC(C)=O)[C@@H]32`, the IC50 is more than 100000 nM.

Turning to `CC[C@]12C=CCN3CC[C@@]4(c5cc([C@@]6(C(=O)OC)C[C@H]7C[C@@H](C(C)(F)F)CN(Cc8c6[nH]c6ccc(C(=O)C9CC9)cc86)C7)c(OC)cc5N(C)[C@H]4[C@@](O)(C(=O)OC)[C@@H]1OC(C)=O)[C@@H]32`, the half-maximal inhibitory concentration (IC50) is 4450 nM.

`C=CCNc1ccc2[nH]c3c(c2c1)CN1C[C@H](C[C@@H](C(C)(F)F)C1)C[C@]3(C(=O)OC)c1cc2c(cc1OC)N(C)[C@H]1[C@@](O)(C(=O)OC)[C@H](OC(C)=O)[C@]3(CC)C=CCN4CC[C@]21[C@@H]43` came in with an IC50 of 510 nM.

Turning to `CC[C@]12C=CCN3CC[C@@]4(c5cc([C@@]6(C(=O)OC)C[C@H]7C[C@@H](C(C)(F)F)CN(Cc8c6[nH]c6ccc(NC(N)=O)cc86)C7)c(OC)cc5N(C)[C@H]4[C@@](O)(C(=O)OC)[C@@H]1OC(C)=O)[C@@H]32`, the IC50 is more than 100000 nM.

`C#Cc1ccc2[nH]c3c(c2c1)CCN1C[C@H](C[C@@H](C(C)(F)F)C1)C[C@]3(C(=O)OC)c1cc2c(cc1OC)N(C)[C@H]1[C@@](O)(C(=O)OC)[C@H](OC(C)=O)[C@]3(CC)C=CCN4CC[C@]21[C@@H]43` gave a half-inhibitory concentration (IC50) of 50 nM.

Turning to `CC[C@]12C=CCN3CC[C@@]4(c5cc([C@@]6(C(=O)OC)C[C@H]7C[C@@H](C(C)(F)F)CN(CCc8c6[nH]c6ccc(C#N)cc86)C7)c(OC)cc5N(C)[C@H]4[C@@](O)(C(=O)OC)[C@@H]1OC(C)=O)[C@@H]32`, it took 290 nM to reach half-maximal inhibition (IC50).

`CC[C@]12C=CCN3CC[C@@]4(c5cc([C@@]6(C(=O)OC)C[C@@H]7C[C@@H](C(C)(F)F)CN(Cc8c6[nH]c6ccccc86)C7)c(OC)cc5N(C)[C@H]4[C@@](O)(C(=O)OC)[C@@H]1OC(C)=O)[C@@H]32` [VINFLUNINE] had an IC50 of 80 nM.
